Test in all cases: relative viability (nuclei count vs DMSO), 5 days (fraction); higher = more cells survive
Compound in one assay: CN(C/C=C/C1=CC=C(C=C1)Cl)CC2=CC=CC=C2N(CCO)S(=O)(=O)C3=CC=C(C=C3)OC [KN-93]
A digest of the protocol:
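Lung cancer cell lines in 1536-well plates were kept overnight at 37 °C, then pinned with five library-drug doses (not always all listed) spaced by √10 on vehicle-anchored plates. After 5 days without medium change, cells were fixed, permeabilised and Hoechst-stained in one step, imaged at 4×, and nuclei were counted with MetaXpress. Viability is treated-well nuclei divided by vehicle-well nuclei, taken as the median over plates. Plates passed only with control CV below 25% and at least one doubling.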

Compound in the assay “KN-93 + Crizotinib”: CN(C/C=C/C1=CC=C(C=C1)Cl)CC2=CC=CC=C2N(CCO)S(=O)(=O)C3=CC=C(C=C3)OC [KN-93] + C[C@@H](Oc1cc(-c2cnn(C3CCNCC3)c2)cnc1N)c1c(Cl)ccc(F)c1Cl [Crizotinib] (partner 1 µM)
A digest of the protocol:
(§1)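 Medians of duplicate plates are given as relative viability. That measure is the nuclei count in treated wells divided by the count in vehicle wells. Counts were taken on 4× images of lung cancer cell lines in 1536-well plates, 5 days after pin-tool dosing the day after seeding with one drug alone or a fixed anchor-drug dose plus five library-drug doses (not always all listed) in √10 steps.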

Compound in the assay “KN-93 + Alpelisib”: CN(C/C=C/C1=CC=C(C=C1)Cl)CC2=CC=CC=C2N(CCO)S(=O)(=O)C3=CC=C(C=C3)OC [KN-93] + Cc1nc(NC(=O)N2CCC[C@H]2C(N)=O)sc1-c1ccnc(C(C)(C)C(F)(F)F)c1 [Alpelisib] (partner 2 µM)
A digest of the protocol:
as §1

Compound in the assay “KN-93 + Dasatinib”: CN(C/C=C/C1=CC=C(C=C1)Cl)CC2=CC=CC=C2N(CCO)S(=O)(=O)C3=CC=C(C=C3)OC [KN-93] + Cc1nc(Nc2ncc(C(=O)Nc3c(C)cccc3Cl)s2)cc(N2CCN(CCO)CC2)n1 [Dasatinib] (partner 0.075 µM)
A digest of the protocol: as §1

Compound in the assay “KN-93 + Olaparib”: CN(C/C=C/C1=CC=C(C=C1)Cl)CC2=CC=CC=C2N(CCO)S(=O)(=O)C3=CC=C(C=C3)OC [KN-93] + O=C(c1cc(Cc2n[nH]c(=O)c3ccccc23)ccc1F)N1CCN(C(=O)C2CC2)CC1 [Olaparib] (partner 8 µM)
An outline of the steps:
as §1

For the cell line NCI-H1993, the relative viability with KN-93 (0.08 µM) is 0.973; with KN-93 (0.253 µM), 0.921; with KN-93 (2.53 µM), 1.04; with KN-93 (8 µM), 0.772; with KN-93 + Crizotinib (first compound 0.08 µM) it was 0.968; with KN-93 + Crizotinib (first compound 0.253 µM), 0.814. In addition, the relative viability with KN-93 + Crizotinib (first compound 2.53 µM) was determined as 0.76; with KN-93 + Crizotinib (first compound 8 µM), 0.727; with KN-93 + Alpelisib (first compound 0.08 µM), 0.648; in the assay with KN-93 + Alpelisib (first compound 0.253 µM), 0.574; with KN-93 + Alpelisib (first compound 2.53 µM) it was 0.71; with KN-93 + Alpelisib (first compound 8 µM) it was 0.59. The relative viability with KN-93 + Dasatinib (first compound 0.08 µM) came out at 0.518; with KN-93 + Dasatinib (first compound 0.253 µM), 0.547; in the assay with KN-93 + Dasatinib (first compound 2.53 µM) it was 0.55; with KN-93 + Dasatinib (first compound 8 µM) it was 0.47; in the assay with KN-93 + Olaparib (first compound 0.08 µM), 0.915; with KN-93 + Olaparib (first compound 0.253 µM), 0.947. Also, the results for the relative viability with KN-93 + Olaparib (first compound 2.53 µM) and in the assay with KN-93 + Olaparib (first compound 8 µM) were 1.14 and 0.771, respectively.

As for NCI-H2009, the relative viability was determined as 1.01 with KN-93 (0.08 µM); 1.05 in the assay with KN-93 (0.253 µM); 0.922 in the assay with KN-93 (2.53 µM); 0.603 with KN-93 (8 µM); 1.18 in the assay with KN-93 + Crizotinib (first compound 0.08 µM); 1.1 in the assay with KN-93 + Crizotinib (first compound 0.253 µM). The relative viability in the assay with KN-93 + Crizotinib (first compound 2.53 µM) worked out at 1.04; with KN-93 + Crizotinib (first compound 8 µM), 0.474; with KN-93 + Alpelisib (first compound 0.08 µM), 1.2; in the assay with KN-93 + Alpelisib (first compound 0.253 µM), 1.3; in the assay with KN-93 + Alpelisib (first compound 2.53 µM), 1.29; with KN-93 + Alpelisib (first compound 8 µM) it was 0.887. Further, the relative viability was 0.326 in the assay with KN-93 + Dasatinib (first compound 0.08 µM); 0.29 with KN-93 + Dasatinib (first compound 0.253 µM); 0.236 with KN-93 + Dasatinib (first compound 2.53 µM); 0.159 in the assay with KN-93 + Dasatinib (first compound 8 µM); 0.683 with KN-93 + Olaparib (first compound 0.08 µM); 0.815 with KN-93 + Olaparib (first compound 0.253 µM). Besides, the relative viability in the assay with KN-93 + Olaparib (first compound 2.53 µM) is 0.656; with KN-93 + Olaparib (first compound 8 µM), 0.528.

Take NCI-H2023: the relative viability with KN-93 (0.08 µM) was 0.906; with KN-93 (0.253 µM) it was 1.01; in the assay with KN-93 (2.53 µM), 1.08; in the assay with KN-93 (8 µM), 0.534; in the assay with KN-93 + Crizotinib (first compound 0.08 µM), 0.795; in the assay with KN-93 + Crizotinib (first compound 0.253 µM) it was 0.855. Also, the relative viability turned out to be 0.745 with KN-93 + Crizotinib (first compound 2.53 µM); 0.439 with KN-93 + Crizotinib (first compound 8 µM); 0.562 with KN-93 + Alpelisib (first compound 0.08 µM); 0.46 in the assay with KN-93 + Alpelisib (first compound 0.253 µM); 0.689 in the assay with KN-93 + Alpelisib (first compound 2.53 µM); 0.517 with KN-93 + Alpelisib (first compound 8 µM). The relative viability is 0.494 with KN-93 + Dasatinib (first compound 0.08 µM); 0.472 in the assay with KN-93 + Dasatinib (first compound 0.253 µM); 0.647 in the assay with KN-93 + Dasatinib (first compound 2.53 µM); 0.244 in the assay with KN-93 + Dasatinib (first compound 8 µM); 0.454 in the assay with KN-93 + Olaparib (first compound 0.08 µM); 0.542 in the assay with KN-93 + Olaparib (first compound 0.253 µM). The relative viability amounted to 0.606 with KN-93 + Olaparib (first compound 2.53 µM) and 0.324 with KN-93 + Olaparib (first compound 8 µM).

With NCI-H2085, the relative viability is 0.951 with KN-93 (0.08 µM); 1.01 in the assay with KN-93 (0.253 µM); 1.05 with KN-93 (2.53 µM); 0.81 in the assay with KN-93 (8 µM); 0.815 with KN-93 + Crizotinib (first compound 0.08 µM); 1.17 in the assay with KN-93 + Crizotinib (first compound 0.253 µM). The relative viability with KN-93 + Crizotinib (first compound 2.53 µM) was found to be 0.921; in the assay with KN-93 + Crizotinib (first compound 8 µM) it was 0.565; in the assay with KN-93 + Alpelisib (first compound 0.08 µM) it was 0.993; in the assay with KN-93 + Alpelisib (first compound 0.253 µM), 1.07; in the assay with KN-93 + Alpelisib (first compound 2.53 µM), 0.985; with KN-93 + Alpelisib (first compound 8 µM), 0.749. Further, the relative viability with KN-93 + Dasatinib (first compound 0.08 µM) turned out to be 0.237; in the assay with KN-93 + Dasatinib (first compound 0.253 µM) it was 0.254; with KN-93 + Dasatinib (first compound 2.53 µM), 0.231; with KN-93 + Dasatinib (first compound 8 µM), 0.268; in the assay with KN-93 + Olaparib (first compound 0.08 µM), 0.741; in the assay with KN-93 + Olaparib (first compound 0.253 µM), 0.735. Further, the relative viability with KN-93 + Olaparib (first compound 2.53 µM) is 0.776; with KN-93 + Olaparib (first compound 8 µM) it was 0.6.

As to NCI-H2087, the relative viability with KN-93 (0.08 µM) is 0.788; with KN-93 (0.253 µM) it was 1.13; in the assay with KN-93 (2.53 µM), 1.12; with KN-93 (8 µM), 0.533; with KN-93 + Crizotinib (first compound 0.08 µM) it was 0.678; with KN-93 + Crizotinib (first compound 0.253 µM) it was 1.01. The relative viability came to 0.84 with KN-93 + Crizotinib (first compound 2.53 µM); 0.55 with KN-93 + Crizotinib (first compound 8 µM); 0.879 with KN-93 + Alpelisib (first compound 0.08 µM); 1.21 with KN-93 + Alpelisib (first compound 0.253 µM); 0.933 in the assay with KN-93 + Alpelisib (first compound 2.53 µM); 0.532 in the assay with KN-93 + Alpelisib (first compound 8 µM). For the same cell line, the relative viability turned out to be 0.793 in the assay with KN-93 + Dasatinib (first compound 0.08 µM); 1.38 in the assay with KN-93 + Dasatinib (first compound 0.253 µM); 0.882 in the assay with KN-93 + Dasatinib (first compound 2.53 µM); 0.622 with KN-93 + Dasatinib (first compound 8 µM); 0.453 in the assay with KN-93 + Olaparib (first compound 0.08 µM); 0.606 with KN-93 + Olaparib (first compound 0.253 µM). In addition, the relative viability with KN-93 + Olaparib (first compound 2.53 µM) was 0.653; in the assay with KN-93 + Olaparib (first compound 8 µM), 0.383.

Consider NCI-H2126, for which the relative viability with KN-93 (0.08 µM) is 0.96; with KN-93 (0.253 µM) it was 0.887; with KN-93 (2.53 µM) it was 1.08; with KN-93 (8 µM), 0.902; in the assay with KN-93 + Crizotinib (first compound 0.08 µM) it was 1.04; with KN-93 + Crizotinib (first compound 0.253 µM), 1.14. Further, the relative viability is 1.07 in the assay with KN-93 + Crizotinib (first compound 2.53 µM); 0.981 in the assay with KN-93 + Crizotinib (first compound 8 µM); 0.81 in the assay with KN-93 + Alpelisib (first compound 0.08 µM); 0.725 in the assay with KN-93 + Alpelisib (first compound 0.253 µM); 0.769 in the assay with KN-93 + Alpelisib (first compound 2.53 µM); 0.727 with KN-93 + Alpelisib (first compound 8 µM). Besides, the relative viability in the assay with KN-93 + Dasatinib (first compound 0.08 µM) came to 0.565; in the assay with KN-93 + Dasatinib (first compound 0.253 µM), 0.468; with KN-93 + Dasatinib (first compound 2.53 µM), 0.578; with KN-93 + Dasatinib (first compound 8 µM) it was 0.364; in the assay with KN-93 + Olaparib (first compound 0.08 µM), 0.819; in the assay with KN-93 + Olaparib (first compound 0.253 µM) it was 1.08. The relative viability with KN-93 + Olaparib (first compound 2.53 µM) stood at 0.931; with KN-93 + Olaparib (first compound 8 µM) it was 0.772.

NCI-H2170: the relative viability with KN-93 (0.08 µM) is 0.761; with KN-93 (0.253 µM) it was 1.03; with KN-93 (2.53 µM), 1.01; with KN-93 (8 µM) it was 0.676; with KN-93 + Crizotinib (first compound 0.08 µM) it was 1.13; in the assay with KN-93 + Crizotinib (first compound 0.253 µM), 1.66. In addition, the relative viability with KN-93 + Crizotinib (first compound 2.53 µM) was 1.42; in the assay with KN-93 + Crizotinib (first compound 8 µM), 0.931; with KN-93 + Alpelisib (first compound 0.08 µM) it was 0.782; in the assay with KN-93 + Alpelisib (first compound 0.253 µM), 0.876; with KN-93 + Alpelisib (first compound 2.53 µM), 0.928; with KN-93 + Alpelisib (first compound 8 µM), 0.65. For the same cell line, the relative viability amounted to 0.501 with KN-93 + Dasatinib (first compound 0.08 µM); 0.55 with KN-93 + Dasatinib (first compound 0.253 µM); 0.718 with KN-93 + Dasatinib (first compound 2.53 µM); 0.266 in the assay with KN-93 + Dasatinib (first compound 8 µM); 0.531 with KN-93 + Olaparib (first compound 0.08 µM); 0.679 with KN-93 + Olaparib (first compound 0.253 µM). The figures for the relative viability with KN-93 + Olaparib (first compound 2.53 µM) and with KN-93 + Olaparib (first compound 8 µM) were 0.679 and 0.419, respectively.

(Values after the supplement of paper PMC10307832.)
